For assay [1], the target named is GDP-bound NRAS wild-type protein (Homo sapiens, UniProt P01111). The assay is described as follows: Binding to NRAS by surface plasmon resonance (SPR), Single Cycle Kinetics. The settings on record: for NRAS/KRAS (ratio of KD value with respect to NRAS to KD value with respect to KRAS): GDP-bound NRAS wild-type vs GDP-bound KRAS wild-type. (In general: SPR reads the build-up and loss of mass on a sensor chip optically.)

Assay [2] addresses GDP-bound HRAS wild-type protein (Homo sapiens, UniProt P01112). The assay can be described thus: Binding to HRAS by surface plasmon resonance (SPR), Single Cycle Kinetics. The settings on record: for HRAS/KRAS (ratio of KD value with respect to HRAS to KD value with respect to KRAS): GDP-bound HRAS wild-type vs GDP-bound KRAS wild-type.

Where a SMILES comes first, the peptide text is derived from it. Bridges are numbered along the chain shown (N, C = ends). [ ]: non-standard residue; d: D form. The star is where a group is joined. hPhe(3,5-F2-4-CF3) = N[C@@H](CCc1cc(F)c(C(F)(F)F)c(F)c1)C(=O)O; hPhe(3-Cl-4-CF3) = N[C@@H](CCc1ccc(C(F)(F)F)c(Cl)c1)C(=O)O; NPrPhe(4-CF3) = CCCN[C@@H](Cc1ccc(C(F)(F)F)cc1)C(=O)O; NMeGly(cPent) = CN[C@H](C(=O)O)C1CCCC1; NMeD = CN[C@@H](CC(=O)O)C(=O)O; NMeL = CN[C@@H](CC(C)C)C(=O)O; αMeS = C[C@](N)(CO)C(=O)O; Morpholide = C1CN(*)CCO1; Ac4c = NC1(C(=O)O)CCC1; Sar = CNCC(=O)O; Allyl = C=CC*

Sequence of GDP-bound NRAS wild-type protein (P01111 whole entry): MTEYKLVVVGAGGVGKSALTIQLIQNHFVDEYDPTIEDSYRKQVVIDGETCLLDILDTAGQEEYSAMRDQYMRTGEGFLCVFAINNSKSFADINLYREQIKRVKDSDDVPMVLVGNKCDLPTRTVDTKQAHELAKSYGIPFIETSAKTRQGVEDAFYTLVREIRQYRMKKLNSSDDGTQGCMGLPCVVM
Sequence of GDP-bound HRAS wild-type protein (P01112 whole entry): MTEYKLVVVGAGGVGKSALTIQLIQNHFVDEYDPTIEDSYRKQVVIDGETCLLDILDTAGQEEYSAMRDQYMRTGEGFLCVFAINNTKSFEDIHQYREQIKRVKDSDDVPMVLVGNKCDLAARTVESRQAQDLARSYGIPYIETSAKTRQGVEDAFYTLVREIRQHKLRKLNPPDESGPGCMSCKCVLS

Regarding `CCO[C@@H]1C[C@H]2C(=O)NC3(CCC3)C(=O)N(C)[C@@H](C3CCCC3)C(=O)N(C)[C@H](C(=O)N3CCOCC3)CC(=O)N(C)[C@@H](COC)C(=O)N[C@@H]([C@@H](C)CC)C(=O)NCC(=O)N(C)[C@H]3CCCCCN(C3=O)[C@@H](Cc3ccc(C(F)(F)F)cc3)C(=O)N(C)CC(=O)N[C@@H](CCc3cc(F)c(C(F)(F)F)c(F)c3)C(=O)N2C1` [PP0858], the “NRAS/KRAS (ratio of KD value with respect to NRAS to KD value with respect to KRAS)” value in assay [1] (SPR) is “B (a compound having 3 or more and less than 10 is denoted as B)”. The “HRAS/KRAS (ratio of KD value with respect to HRAS to KD value with respect to KRAS)” value in assay [2] (SPR) is “B (a compound having 3 or more and less than 10 is denoted as B)”.

Take `CC[C@H](C)[C@@H]1NC(=O)[C@H](CC(C)C)N(C)C(=O)C[C@@H](C(=O)N2CCOCC2)N(C)C(=O)[C@H](C2CCCC2)N(C)C(=O)C2(CCC2)NC(=O)[C@@H]2CC(F)(F)CN2C(=O)[C@H](CCc2ccc(C(F)(F)F)c(Cl)c2)NC(=O)CN(C)C(=O)[C@H](Cc2ccc(F)cc2)N2CCCCC[C@@H](C2=O)N(C)C(=O)CN(C)C1=O` [PP0969]: the “NRAS/KRAS (ratio of KD value with respect to NRAS to KD value with respect to KRAS)” value in assay [1] (SPR) is “B (a compound having 3 or more and less than 10 is denoted as B)”. The “HRAS/KRAS (ratio of KD value with respect to HRAS to KD value with respect to KRAS)” value in assay [2] (SPR) is “B (a compound having 3 or more and less than 10 is denoted as B)”.

Regarding `CCC[C@H]1C(=O)N[C@@H]([C@@H](C)CC)C(=O)N(C)CC(=O)N(C)[C@H]2C/C=C\CCN(C2=O)[C@@H](Cc2ccc(C(F)(F)F)cc2)C(=O)N(C)CC(=O)N[C@@H](CCc2ccc(CC)c(Cl)c2)C(=O)N2C[C@H](OCC)C[C@H]2C(=O)NC2(CC(C)(C)C2)C(=O)N(C)[C@@H](C2CCCC2)C(=O)N(C)[C@H](C(=O)N(C)C)CC(=O)N1C` [PP2848], the “NRAS/KRAS (ratio of KD value with respect to GDP-bound NRAS wild-type protein to KD value with respect to KRAS)” value in assay [1] (class symbols) was “A (a compound having 10 or more and less than 20 is denoted as A)”. Besides, in assay [2] (class symbols), the “HRAS/KRAS (ratio of KD value with respect to GDP-bound HRAS wild-type protein to KD value with respect to KRAS)” value was “A (a compound having 10 or more and less than 20 is denoted as A)”.

`C=CCOC[C@]1(C)NC(=O)[C@@H]2CCCN2C(=O)[C@H](CCc2cc(F)c(C(F)(F)F)c(F)c2)NC(=O)CN(C)C(=O)[C@H](Cc2ccc(C(F)(F)F)cc2)N(CCC)C(=O)CN(C)C(=O)CN(C)C(=O)[C@H]([C@@H](C)CC)NC(=O)[C@H](CC(C)C)N(C)C(=O)C[C@@H](C(=O)N2CCOCC2)N(C)C(=O)[C@H](C2CCCC2)N(C)C1=O` [PP0763] ([NMeL]I[Sar][Sar][NPrPhe(4-CF3)][Sar][hPhe(3,5-F2-4-CF3)]P[αMeS](Allyl)[NMeGly(cPent)][NMeD]-Morpholide; lactam N-11): the “NRAS/KRAS (ratio of KD value with respect to GDP-bound NRAS wild-type protein to KD value with respect to KRAS)” value in assay [1] (SPR) is “B (a compound having 3 or more and less than 10 is denoted as B)”. In assay [2] (SPR), the “HRAS/KRAS (ratio of KD value with respect to GDP-bound HRAS wild-type protein to KD value with respect to KRAS)” value was “B (a compound having 3 or more and less than 10 is denoted as B)”.

With `CC[C@H](C)[C@@H]1NC(=O)[C@H](CC(C)C)N(C)C(=O)C[C@@H](C(=O)N2C[C@@H](C)O[C@@H](C)C2)N(C)C(=O)[C@H](C2CCCC2)N(C)C(=O)C2(CCCC2)NC(=O)[C@@H]2CCCN2C(=O)[C@H](CCc2ccc(C(F)(F)F)c(Cl)c2)NC(=O)CN(C)C(=O)[C@H](Cc2ccc(F)cc2)N2CCCCC[C@@H](C2=O)N(C)C(=O)CN(C)C1=O` [PP1151], the “NRAS/KRAS (ratio of KD value with respect to NRAS to KD value with respect to KRAS)” value in assay [1] (SPR) was “B (a compound having 3 or more and less than 10 is denoted as B)”. In assay [2] (SPR), the “HRAS/KRAS (ratio of KD value with respect to HRAS to KD value with respect to KRAS)” value was “B (a compound having 3 or more and less than 10 is denoted as B)”.

As for `CCC[C@H]1C(=O)N[C@@H]([C@@H](C)CC)C(=O)N(C)CC(=O)N(C)[C@H]2C/C=C\CCN(C2=O)[C@@H](Cc2ccc(C(F)(F)F)cc2)C(=O)N(C)CC(=O)N[C@@H](CCc2ccc(C(F)(F)F)c(Cl)c2)C(=O)N2C[C@H](OCC)C[C@H]2C(=O)NC2(CC(C)(C)C2)C(=O)N(C)[C@@H](CC(C)(C)C)C(=O)N(C)[C@H](C(=O)N(C)C)CC(=O)N1C` [PP2969], in assay [1] (class symbols), the “NRAS/KRAS (ratio of KD value with respect to GDP-bound NRAS wild-type protein to KD value with respect to KRAS)” value is given as “AA (a compound having 20 or more is denoted as AA)”. Besides, the “HRAS/KRAS (ratio of KD value with respect to GDP-bound HRAS wild-type protein to KD value with respect to KRAS)” value in assay [2] (class symbols) was “A (a compound having 10 or more and less than 20 is denoted as A)”.

`CCCN1C(=O)CN(C)C(=O)CN(C)C(=O)[C@H]([C@@H](C)CC)NC(=O)[C@H](CC(C)C)N(C)C(=O)C[C@@H](C(=O)N(C)C)N(C)C(=O)[C@H](C2CCCC2)N(C)C(=O)C2(CCC2)NC(=O)[C@@H]2CCCN2C(=O)[C@H](CCc2ccc(C(F)(F)F)c(Cl)c2)NC(=O)CN(C)C(=O)[C@@H]1Cc1ccc(C(F)(F)F)cc1` [PP0412] ([NMeL]I[Sar][Sar][NPrPhe(4-CF3)][Sar][hPhe(3-Cl-4-CF3)]P[Ac4c][NMeGly(cPent)][NMeD]-NMe2; lactam N-11): the “NRAS/KRAS (ratio of KD value with respect to GDP-bound NRAS wild-type protein to KD value with respect to KRAS)” value in assay [1] (SPR) was “B (a compound having 3 or more and less than 10 is denoted as B)”. The “HRAS/KRAS (ratio of KD value with respect to GDP-bound HRAS wild-type protein to KD value with respect to KRAS)” value in assay [2] (SPR) was “C (A compound having a KD ratio of 0.1 or more and less than 3 is denoted as C)”.
